Measured values published in PubChem BioAssay (NCI).
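1) Cells in 96-well plates. 2) Compound, 48 h, 5 concentrations. 3) Linear interpolation between surrounding doses. 4) Unreached endpoint = highest concentration. At the TGI there is no net growth.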

Legend:
Test in all cases: inhibition of tumour cell growth, NCI panel, 48 h
[1] = system: CCRF-CEM leukemia
[2] = system: HCT-116 colon
[3] = system: CAKI-1 renal
[4] = system: UACC-62 melanoma
[5] = system: DMS 114 small cell lung
[6] = system: SK-MEL-2 melanoma
[7] = system: SNB-75 CNS
[8] = system: K-562 leukemia
[9] = system: HOP-62 NSCLC
[10] = system: SW-620 colon
[11] = system: HOP-92 NSCLC
[12] = system: M19-MEL melanoma
[13] = system: A498 renal
[14] = system: MALME-3M melanoma
[15] = system: UACC-257 melanoma
[16] = system: SNB-78 CNS
[17] = system: COLO 205 colon
[18] = system: LOX IMVI melanoma
[19] = system: NCI-H522 lung
[20] = system: RXF 393 renal
[21] = system: A549 NSCLC
[22] = system: IGROV1 ovarian
[23] = system: OVCAR-8 ovarian
[24] = system: SR leukemia
[25] = system: RPMI-8226 leukemia
[26] = system: XF 498 CNS
[27] = system: TK-10 renal
[28] = system: OVCAR-5 ovarian
[29] = system: M14 melanoma
[30] = system: UO-31 renal
[31] = system: DMS 273 small cell lung
[32] = system: OVCAR-4 ovarian
[33] = system: HL-60(TB) leukemia
[34] = system: SF-295 CNS
[35] = system: HT29 colon
[36] = system: SNB-19 CNS
[37] = system: NCI-H23 lung
[38] = system: SK-MEL-28 melanoma
[39] = system: SF-539 CNS
[40] = system: HCT-15 colon
[41] = system: HOP-18 NSCLC
[42] = system: KM12 colon
[43] = system: NCI-H226 lung
[44] = system: EKVX NSCLC
[45] = system: NCI-H460 lung
[46] = system: KM20L2 colon
[47] = system: SF-268 CNS
[48] = system: SN12C renal
[49] = system: 786-0 renal
[50] = system: SK-OV-3 ovarian
[51] = system: SK-MEL-5 melanoma
[52] = system: OVCAR-3 ovarian
[53] = system: ACHN renal
[54] = system: LXFL 529 NSCLC
[55] = system: U251 CNS
[56] = system: DLD-1 colon
[57] = system: HCC-2998 colon
[58] = system: MOLT-4 leukemia
[59] = system: RXF-631 renal
[60] = system: MCF7 breast
[61] = system: HS 578T breast
[62] = system: MDA-MB-231 breast
[63] = system: NCI/ADR-RES ovarian
[64] = system: T-47D breast
[65] = system: BT-549 breast
[66] = system: DU-145 prostate
[67] = system: PC-3 prostate

Q: For `C=C(C)C1Cc2c(cc(OC)c3c(=O)c4ccccc4n(C)c23)O1` (centres undefined), which TGI [1] is on record?
A: > 100 µM

Q: And the TGI [2]?
A: > 100 µM

Q: And the TGI [3]?
A: > 100 µM

Q: What about the TGI [4] of the same compound?
A: > 100 µM

Q: What about the TGI [5] of the same compound?
A: > 100 µM

Q: What about the TGI [6] of the same compound?
A: > 100 µM

Q: And the TGI [7]?
A: > 100 µM

Q: What about the TGI [8] of the same compound?
A: > 100 µM

Q: What about the TGI [9] of the same compound?
A: > 100 µM

Q: What about the TGI [10] of the same compound?
A: > 100 µM

Q: What about the TGI [11] of the same compound?
A: > 100 µM

Q: And the TGI [12]?
A: > 100 µM

Q: What about the TGI [13] of the same compound?
A: > 100 µM

Q: What about the TGI [14] of the same compound?
A: > 100 µM

Q: What about the TGI [15] of the same compound?
A: > 100 µM

Q: And the TGI [16]?
A: > 100 µM

Q: And the TGI [17]?
A: > 100 µM

Q: What about the TGI [18] of the same compound?
A: > 100 µM

Q: What about the TGI [19] of the same compound?
A: 34.3 µM

Q: And the TGI [20]?
A: > 100 µM

Q: And the TGI [21]?
A: > 100 µM

Q: What about the TGI [22] of the same compound?
A: > 100 µM

Q: What about the TGI [23] of the same compound?
A: > 100 µM

Q: What about the TGI [24] of the same compound?
A: > 100 µM

Q: What about the TGI [25] of the same compound?
A: > 100 µM

Q: What about the TGI [26] of the same compound?
A: > 100 µM

Q: What about the TGI [27] of the same compound?
A: > 100 µM

Q: And the TGI [28]?
A: > 100 µM

Q: What about the TGI [29] of the same compound?
A: > 100 µM

Q: What about the TGI [30] of the same compound?
A: > 100 µM

Q: And the TGI [31]?
A: > 100 µM

Q: And the TGI [32]?
A: > 100 µM

Q: What about the TGI [33] of the same compound?
A: > 100 µM

Q: What about the TGI [34] of the same compound?
A: > 100 µM

Q: What about the TGI [35] of the same compound?
A: > 100 µM

Q: And the TGI [36]?
A: > 100 µM

Q: And the TGI [37]?
A: > 100 µM

Q: What about the TGI [38] of the same compound?
A: > 100 µM

Q: And the TGI [39]?
A: > 100 µM

Q: What about the TGI [40] of the same compound?
A: > 100 µM

Q: And the TGI [41]?
A: > 100 µM

Q: And the TGI [42]?
A: > 100 µM

Q: And the TGI [43]?
A: > 100 µM

Q: What about the TGI [44] of the same compound?
A: > 100 µM

Q: And the TGI [45]?
A: > 100 µM

Q: And the TGI [46]?
A: > 100 µM

Q: And the TGI [47]?
A: > 100 µM

Q: And the TGI [48]?
A: > 100 µM

Q: What about the TGI [49] of the same compound?
A: > 100 µM

Q: What about the TGI [50] of the same compound?
A: > 100 µM

Q: And the TGI [51]?
A: > 100 µM

Q: What about the TGI [52] of the same compound?
A: > 100 µM

Q: And the TGI [53]?
A: > 100 µM

Q: And the TGI [54]?
A: > 100 µM

Q: And the TGI [55]?
A: > 100 µM

Q: What about the TGI [56] of the same compound?
A: > 100 µM

Q: What about the TGI [57] of the same compound?
A: > 100 µM

Q: Which results are given for `Cc1ccc(NC(=O)CC(=O)n2nc(-c3ccccc3)c(N=Nc3ccccc3C(=O)O)c2-c2ccccc2)cc1`?
A: TGI [2]: > 100 µM; TGI [3]: > 100 µM; TGI [4]: > 100 µM; TGI [6]: > 100 µM; TGI [8]: > 100 µM; TGI [9]: > 100 µM; TGI [10]: > 100 µM; TGI [11]: > 100 µM; TGI [12]: > 100 µM; TGI [14]: > 100 µM; TGI [17]: > 100 µM; TGI [58]: > 100 µM; TGI [18]: > 100 µM; TGI [19]: > 100 µM; TGI [20]: > 100 µM; TGI [21]: > 100 µM; TGI [22]: > 100 µM; TGI [23]: > 100 µM; TGI [24]: > 100 µM; TGI [25]: > 100 µM; TGI [27]: > 100 µM; TGI [28]: > 100 µM; TGI [30]: > 100 µM; TGI [31]: > 100 µM; TGI [32]: > 100 µM; TGI [34]: > 100 µM; TGI [36]: > 100 µM; TGI [38]: > 100 µM; TGI [39]: > 100 µM; TGI [40]: > 100 µM; TGI [42]: > 100 µM; TGI [43]: > 100 µM; TGI [44]: > 100 µM; TGI [46]: > 100 µM; TGI [47]: > 100 µM; TGI [48]: > 100 µM; TGI [50]: > 100 µM; TGI [51]: > 100 µM; TGI [52]: > 100 µM; TGI [53]: > 100 µM; TGI [54]: > 100 µM; TGI [59]: > 100 µM; TGI [56]: > 100 µM; TGI [57]: > 100 µM

Q: How did the TGI [1] turn out when `CC[C@@]1(OC(=O)C(N)CCC(=O)O)C(=O)OCc2c1cc1n(c2=O)Cc2cc3ccccc3nc2-1` (some centres undefined) was run?
A: 0.247 µM

Q: What about the TGI [2] of the same compound?
A: > 100 µM

Q: And the TGI [3]?
A: 0.235 µM

Q: And the TGI [60]?
A: > 100 µM

Q: What about the TGI [4] of the same compound?
A: 0.16 µM

Q: And the TGI [5]?
A: 4.42 µM

Q: What about the TGI [6] of the same compound?
A: 3.44 µM

Q: What about the TGI [7] of the same compound?
A: 1.35 µM

Q: And the TGI [8]?
A: > 100 µM

Q: And the TGI [9]?
A: 0.125 µM

Q: And the TGI [10]?
A: > 21.1 µM

Q: What about the TGI [11] of the same compound?
A: 1.57 µM

Q: And the TGI [12]?
A: 1.49 µM

Q: What about the TGI [13] of the same compound?
A: 0.965 µM

Q: What about the TGI [61] of the same compound?
A: > 100 µM

Q: What about the TGI [14] of the same compound?
A: 2.79 µM

Q: And the TGI [15]?
A: 1.63 µM

Q: And the TGI [16]?
A: > 100 µM

Q: And the TGI [17]?
A: 3.03 µM

Q: What about the TGI [58] of the same compound?
A: 0.0992 µM

Q: What about the TGI [18] of the same compound?
A: 0.482 µM

Q: And the TGI [19]?
A: 2.03 µM

Q: What about the TGI [20] of the same compound?
A: 0.757 µM

Q: And the TGI [62]?
A: 5.82 µM

Q: And the TGI [21]?
A: 3.37 µM

Q: And the TGI [22]?
A: 4.35 µM

Q: And the TGI [23]?
A: 10.7 µM

Q: And the TGI [25]?
A: 2.94 µM

Q: And the TGI [26]?
A: 2.04 µM

Q: And the TGI [27]?
A: > 100 µM

Q: What about the TGI [28] of the same compound?
A: 8.09 µM

Q: And the TGI [29]?
A: 1.2 µM

Q: And the TGI [30]?
A: 0.746 µM

Q: And the TGI [31]?
A: 0.29 µM

Q: What about the TGI [32] of the same compound?
A: > 20.8 µM

Q: What about the TGI [33] of the same compound?
A: 0.508 µM

Q: And the TGI [34]?
A: 0.446 µM

Q: What about the TGI [35] of the same compound?
A: > 100 µM

Q: And the TGI [36]?
A: > 30.7 µM

Q: And the TGI [37]?
A: 0.389 µM

Q: What about the TGI [38] of the same compound?
A: 51.8 µM

Q: And the TGI [39]?
A: 0.0754 µM

Q: What about the TGI [40] of the same compound?
A: > 100 µM

Q: What about the TGI [42] of the same compound?
A: 6.1 µM

Q: What about the TGI [43] of the same compound?
A: 0.192 µM

Q: What about the TGI [44] of the same compound?
A: > 57.8 µM

Q: And the TGI [46]?
A: 5.08 µM

Q: What about the TGI [63] of the same compound?
A: 0.297 µM

Q: And the TGI [47]?
A: 14.7 µM

Q: What about the TGI [48] of the same compound?
A: 1.34 µM

Q: And the TGI [49]?
A: 0.159 µM

Q: What about the TGI [64] of the same compound?
A: > 100 µM

Q: And the TGI [65]?
A: > 100 µM

Q: And the TGI [66]?
A: 0.0504 µM

Q: And the TGI [50]?
A: 3.33 µM

Q: What about the TGI [51] of the same compound?
A: 0.36 µM

Q: And the TGI [52]?
A: 2.07 µM

Q: What about the TGI [53] of the same compound?
A: 0.561 µM

Q: What about the TGI [54] of the same compound?
A: 5.75 µM

Q: What about the TGI [55] of the same compound?
A: 1.98 µM

Q: What about the TGI [67] of the same compound?
A: > 100 µM

Q: What about the TGI [56] of the same compound?
A: > 100 µM

Q: What about the TGI [57] of the same compound?
A: 3.02 µM
